This is an account of results in patent publication US9469642B2, “Purinone compounds as kinase inhibitors” (Pharmacyclics LLC, priority 2012, dated 2016).

Holding throughout (type): biochemical
The target of one test is EGFR (Homo sapiens, UniProt P00533). In words: Kinase panel inhibition, EGFR (one of the methods of Example 76a, 76b, 76c). The method, then: (§1) Btk kinase activity is determined using a time-resolved fluorescence resonance energy transfer (TR-FRET) methodology. Measurements are performed in a reaction volume of 50 μL using 96-well assay plates. Kinase enzyme, inhibitor, ATP (at the Km for the kinase), and 1 peptide substrate (Biotin-AVLESEEELYSSARQ-NH2) are incubated in a reaction buffer composed of 20 mM Tris, 50 mM NaCl, MgCl2 (5-25 mM depending on the kinase), MnCl2 (0-10 mM), 1 mM DTT, 0.1 mM EDTA, 0.01% bovine serum albumin, 0.005% Tween-20, and 10% DMSO at pH 7.4 for one hour. The reaction is quenched by the addition of 1.2 equivalents of EDTA (relative to divalent cation) in 25 μL of 1× Lance buffer (Perkin-Elmer). Streptavidin-APC (Perkin-Elmer) and Eu-labeled p-Tyr100 antibody (Perkin-Elmer) in 1× Lance buffer are added in a 25 μL volume to give final concentrations of 100 nM and 2.5 nM, respectively, and the mixture is allowed to incubate for one hour. The TR-FRET signal is measured on a multimode plate reader with an excitation wavelength (λEx) of 330 nm and detection wavelengths (λEm) of 615 and 665 nm. Activity is determined by the ratio of the fluorescence at 665 nm to that at 615 nm. For each compound, enzyme activity is measured at various concentrations of compound. Negative control reactions are performed in the absence of inhibitor in replicates of six, and two no-enzyme controls are used to determine baseline fluorescence levels. Inhibition constants, Ki(app), were obtained using the program BatchKi (Kuzmic et al. (2000), Anal. Biochem. 286:45-50). IC50s are obtained according to the equation: IC50=[…]+[E]total/2;
(§2) For all kinases, [ATP]=Km^ATP, [Btk]total=0.5 nM and [Lck]total=6 nM.
(§3) Kinase activity is measured in vitro using electrophoretic mobility shift assay. The kinase reactions are assembled in a total volume of 25 μL in 384 well plates. The reactions comprise: BTK enzyme (1 nM, N-terminal His6-tagged, recombinant, full-length, human BTK purified from baculovirus Sf21 insect cell system), inhibitor, ATP (16 μM, the apparent Km for the kinase), fluorescently labeled peptide substrate (1 μM, FAM-GEEPLYWSFPAKKK-NH2) in a reaction buffer composed of 100 mM HEPES, pH7.5, 5 mM MgCl2 1 mM DTT, 0.1% bovine serum albumin, 0.01% Triton X-100, and 1% DMSO. The reaction is incubated for one hour and is quenched by the addition of 45 μL of termination buffer (100 mM HEPES, pH7.5, 0.01% Triton X-100, 30 mM EDTA). The terminated reactions are analyzed using 12 channel LabChip® 3000 microfluidic detection instrument (Caliper Life Sciences). The enzymatic phosphorylation of the peptide results in a change in net charge, enabling electrophoretic separation of product from substrate peptide. As substrate and product peptides are separated, two peaks of fluorescence are observed. Change in the relative fluorescence intensity of the substrate and product peaks is the parameter measured, reflecting enzyme activity. In the presence of an inhibitor, the ratio between product and substrate is altered:the signal of the product decreases, while the signal of the substrate increases.
(§4) Activity in each sample is determined as the product to sum ratio (PSR):P/(S+P), where P is the peak height of the product peptide and S is the peak height of the substrate peptide. For each compound, enzyme activity is measured at various concentrations (12 concentrations of compound spaced by 3× dilution intervals). Negative control samples (0%-inhibition in the absence of inhibitor) and positive control samples (100%-inhibition, in the presence of 20 mM EDTA) are assembled in replicates of four and are used to calculate %-inhibition values for each inhibitor at each concentration. Percent inhibition (Pinh) is determined using following equation: […]

A further test addresses T1, BTK (Homo sapiens, UniProt Q06187).
T1 construct: purified from insect cells as a full-length construct containing a N-terminal 6×-His tag; His6 (N); host or cells: insect cells (baculovirus Sf21)
In words: Btk in vitro inhibitory activity (kinase assay by one of Methods A, B or C). The method, then: as §1, §2, §3, §4

For another test, the target named is LCK (Homo sapiens, UniProt P06239). In words: Kinase panel inhibition, LCK (one of the methods of Example 76a, 76b, 76c). The method, then: as §1, §2, §3, §4

Molecules are shown by their SMILES.

In general, IC50 refers to the midpoint of a concentration-inhibition curve. Higher therefore signals a need for much substance.

Sequence of LCK (P06239 whole entry, species assumed): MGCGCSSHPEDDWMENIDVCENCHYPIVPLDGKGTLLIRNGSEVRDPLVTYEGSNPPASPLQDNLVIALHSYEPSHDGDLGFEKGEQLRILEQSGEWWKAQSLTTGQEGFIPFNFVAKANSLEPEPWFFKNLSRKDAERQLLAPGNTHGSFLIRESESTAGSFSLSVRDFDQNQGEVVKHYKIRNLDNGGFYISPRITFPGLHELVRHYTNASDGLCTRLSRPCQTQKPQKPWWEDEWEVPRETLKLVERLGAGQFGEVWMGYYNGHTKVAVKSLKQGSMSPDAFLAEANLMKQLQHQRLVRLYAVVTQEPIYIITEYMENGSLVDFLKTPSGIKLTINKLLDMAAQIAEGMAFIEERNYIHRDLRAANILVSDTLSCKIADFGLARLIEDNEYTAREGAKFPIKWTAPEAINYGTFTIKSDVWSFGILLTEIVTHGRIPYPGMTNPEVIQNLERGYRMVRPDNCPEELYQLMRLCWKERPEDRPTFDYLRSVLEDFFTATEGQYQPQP
T1 sequence (Q06187 whole entry): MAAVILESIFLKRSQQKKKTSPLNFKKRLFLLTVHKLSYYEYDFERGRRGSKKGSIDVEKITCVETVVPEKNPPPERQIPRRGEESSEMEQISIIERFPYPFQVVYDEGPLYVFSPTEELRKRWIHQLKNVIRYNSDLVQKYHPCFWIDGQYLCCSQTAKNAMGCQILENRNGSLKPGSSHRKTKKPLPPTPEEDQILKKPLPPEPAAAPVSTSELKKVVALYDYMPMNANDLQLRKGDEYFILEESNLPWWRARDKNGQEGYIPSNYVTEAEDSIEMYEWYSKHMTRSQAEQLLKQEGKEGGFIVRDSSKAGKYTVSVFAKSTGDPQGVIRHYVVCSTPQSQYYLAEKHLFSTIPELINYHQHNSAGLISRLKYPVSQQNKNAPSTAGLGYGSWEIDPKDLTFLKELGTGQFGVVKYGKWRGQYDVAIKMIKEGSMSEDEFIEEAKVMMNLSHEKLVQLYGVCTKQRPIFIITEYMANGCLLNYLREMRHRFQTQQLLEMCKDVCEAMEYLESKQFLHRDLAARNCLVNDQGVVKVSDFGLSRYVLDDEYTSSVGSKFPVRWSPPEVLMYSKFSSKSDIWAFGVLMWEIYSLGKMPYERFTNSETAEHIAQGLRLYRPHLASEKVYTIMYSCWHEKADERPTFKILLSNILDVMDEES
Sequence of EGFR (P00533 25-1210, species assumed): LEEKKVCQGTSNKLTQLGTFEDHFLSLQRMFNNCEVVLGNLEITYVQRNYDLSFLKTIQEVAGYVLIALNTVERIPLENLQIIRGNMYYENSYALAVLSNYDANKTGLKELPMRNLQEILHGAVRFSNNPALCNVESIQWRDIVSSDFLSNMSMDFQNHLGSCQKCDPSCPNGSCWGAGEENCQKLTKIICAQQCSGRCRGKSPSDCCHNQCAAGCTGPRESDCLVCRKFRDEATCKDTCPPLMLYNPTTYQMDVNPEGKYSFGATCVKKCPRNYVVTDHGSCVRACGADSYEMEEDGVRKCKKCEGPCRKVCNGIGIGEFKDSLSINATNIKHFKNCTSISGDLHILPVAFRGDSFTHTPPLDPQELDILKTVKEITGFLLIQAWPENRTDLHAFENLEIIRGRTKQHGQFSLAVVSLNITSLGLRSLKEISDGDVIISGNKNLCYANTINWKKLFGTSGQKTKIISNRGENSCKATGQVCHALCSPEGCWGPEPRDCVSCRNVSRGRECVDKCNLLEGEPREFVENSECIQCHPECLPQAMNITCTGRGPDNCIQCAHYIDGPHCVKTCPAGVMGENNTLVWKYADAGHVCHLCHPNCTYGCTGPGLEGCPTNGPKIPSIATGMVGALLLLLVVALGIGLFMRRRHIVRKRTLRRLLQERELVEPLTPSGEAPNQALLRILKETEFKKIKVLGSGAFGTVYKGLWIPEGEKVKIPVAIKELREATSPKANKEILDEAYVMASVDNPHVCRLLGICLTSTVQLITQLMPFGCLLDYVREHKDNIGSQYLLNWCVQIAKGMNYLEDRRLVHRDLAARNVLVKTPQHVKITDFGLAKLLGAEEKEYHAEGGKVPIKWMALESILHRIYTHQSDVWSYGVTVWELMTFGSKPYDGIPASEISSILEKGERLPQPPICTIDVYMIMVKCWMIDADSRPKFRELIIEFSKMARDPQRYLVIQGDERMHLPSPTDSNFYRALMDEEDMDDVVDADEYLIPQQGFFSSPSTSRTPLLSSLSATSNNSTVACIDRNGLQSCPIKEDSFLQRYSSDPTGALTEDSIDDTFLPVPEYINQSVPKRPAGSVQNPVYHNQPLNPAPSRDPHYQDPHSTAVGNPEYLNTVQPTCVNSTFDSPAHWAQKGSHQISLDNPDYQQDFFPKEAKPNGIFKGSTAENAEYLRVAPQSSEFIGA

As to `CN(C)C/C=C/C(=O)Nc1cccc(-n2c(=O)n(-c3ccc(Oc4ccccc4)cc3)c3c(N)ncnc32)c1` [Compound 8, (E)-N-(3-(6-amino-8-oxo-7-(4-phenoxyphenyl)-7H-purin-9(8H)-yl)phenyl)-4-(dimethylamino)but-2-enamide], the IC50 on EGFR was less than 100 nM; at BTK it was less than 100 nM; at LCK it was 100 to 1000 nM. In the case of `CN(C/C=C/C(=O)Nc1cccc(-n2c(=O)n(-c3ccc(Oc4ccccc4)cc3)c3c(N)ncnc32)c1)C1CC1` [Compound 9, (E)-N-(3-(6-amino-8-oxo-7-(4-phenoxyphenyl)-7H-purin-9(8H)-yl)phenyl)-4-(cyclopropyl(methyl)amino)but-2-enamide], the IC50 against EGFR is less than 100 nM; against BTK it was less than 100 nM; on LCK, 100 to 1000 nM. For the compound `CN(C/C=C/C(=O)Nc1cccc(-n2c(=O)n(-c3ccc(Oc4ccccc4)cc3)c3c(N)ncnc32)c1)C1CCC1` [Compound 10, (E)-N-(3-(6-amino-8-oxo-7-(4-phenoxyphenyl)-7H-purin-9(8H)-yl)phenyl)-4-(cyclobutyl(methyl)amino)but-2-enamide], the IC50 was less than 100 nM against EGFR, less than 100 nM on BTK and 100 to 1000 nM at LCK. With `C=CC(=O)Nc1cccc(-n2c(=O)n(-c3ccc(Oc4ccccc4)cc3)c3c(N)ncnc32)c1` [Compound 11, N-(3-(6-amino-8-oxo-7-(4-phenoxyphenyl)-7H-purin-9(8H)-yl)phenyl)acrylamide], the half-maximal inhibitory concentration (IC50) against EGFR, against BTK and at LCK was less than 100 nM throughout. Consider `CN(C)C/C=C/C(=O)Nc1cccc(-n2c(=O)n(-c3ccc(Cl)cc3)c3c(N)ncnc32)c1` [Compound 14, (E)-N-(3-(6-amino-7-(4-chlorophenyl)-8-oxo-7H-purin-9(8H)-yl)phenyl)-4-(dimethylamino)but-2-enamide], for which the IC50 against EGFR was 1000 to 10000 nM; on BTK it was less than 100 nM; against LCK, 1000 to 10000 nM. On to `COc1cc(-n2c(=O)n(-c3cccc(NC(=O)/C=C/CN(C)C)c3)c3ncnc(N)c32)ccc1C` [Compound 17, (E)-N-(3-(6-amino-7-(3-methoxy-4-methylphenyl)-8-oxo-7H-purin-9(8H)-yl)phenyl)-4-(dimethylamino)but-2-enamide], for which the IC50 on EGFR is 1000 to 10000 nM; against BTK, less than 100 nM; against LCK, 1000 to 10000 nM.

As for `CN(C)C/C=C/C(=O)N(C)c1cccc(-n2c(=O)n(-c3ccc(Cl)cc3)c3c(N)ncnc32)c1` [Compound 27, (E)-N-(3-(6-amino-7-(4-chlorophenyl)-8-oxo-7H-purin-9(8H)-yl)phenyl)-4-(dimethylamino)-N-methylbut-2-enamide], the IC50 was greater than 10000 nM against EGFR, less than 100 nM against BTK and greater than 10000 nM at LCK. `CN(C(=O)/C=C/CN(C)C1CCC1)c1cccc(-n2c(=O)n(-c3ccc(Oc4ccccc4)cc3)c3c(N)ncnc32)c1` [Compound 35, (E)-N-(3-(6-amino-8-oxo-7-(4-phenoxyphenyl)-7H-purin-9(8H)-yl)phenyl)-4-(cyclobutyl(methyl)amino)-N-methylbut-2-enamide] registered an IC50 against BTK of less than 100 nM. Take `C=CC(=O)N(C)c1cccc(-n2c(=O)n(-c3ccc(C)c(OC)c3)c3c(N)ncnc32)c1` [Compound 76, N-(3-(6-amino-7-(3-methoxy-4-methylphenyl)-8-oxo-7H-purin-9(8H)-yl)phenyl)-N-methylacrylamide]: the IC50 at BTK is less than 100 nM.

Turning to `C=CC(=O)N(C)c1cccc(-n2c(=O)n(-c3ccc(Cl)cc3)c3c(N)ncnc32)c1` [Compound 77, N-(3-(6-amino-7-(4-chlorophenyl)-8-oxo-7H-purin-9(8H)-yl)phenyl)-N-methylacrylamide], the IC50 against BTK is less than 100 nM. Same read-out and setting: with `C=CC(=O)N1CC[C@@H](n2c(=O)n(-c3ccc(Cl)cc3)c3c(N)ncnc32)C1` [Compound 78, (R)-9-(1-acryloylpyrrolidin-3-yl)-6-amino-7-(4-chlorophenyl)-7H-purin-8(9H)-one] the figure was less than 100 nM.

The compound `C=CC(=O)N1CC[C@@H](n2c(=O)n(-c3ccc(C)c(OC)c3)c3c(N)ncnc32)C1` [Compound 82, (R)-9-(1-acryloylpyrrolidin-3-yl)-6-amino-7-(3-methoxy-4-methylphenyl)-7H-purin-8(9H)-one] displayed an IC50 against BTK of less than 100 nM. Regarding `C=CC(=O)N1CCC[C@@H](n2c(=O)n(-c3ccc(Cl)cc3)c3c(N)ncnc32)C1` [Compound 90, (R)-9-(1-acryloylpiperidin-3-yl)-6-amino-7-(4-chlorophenyl)-7H-purin-8(9H)-one], the IC50 against BTK was less than 100 nM. Same read-out and setting: as for `C=CC(=O)N1CCC[C@@H](n2c(=O)n(-c3ccc(C)c(OC)c3)c3c(N)ncnc32)C1` [Compound 93, (R)-9-(1-acryloylpiperidin-3-yl)-6-amino-7-(3-methoxy-4-methylphenyl)-7H-purin-8(9H)-one], the figure is less than 100 nM; as for `Nc1ncnc2c1n(-c1ccc(Oc3ccccc3)cc1)c(=O)n2-c1cccc(NC(=O)/C=C/CNC2CC2)c1` [Compound 116, (E)-N-(3-(6-amino-8-oxo-7-(4-phenoxyphenyl)-7H-purin-9(8H)-yl)phenyl)-4-(cyclopropylamino)but-2-enamide], less than 100 nM. Take `COc1ccc(N(C)C(=O)/C=C/CN(C)C2CC2)cc1-n1c(=O)n(-c2ccc(Oc3ccccc3)cc2)c2c(N)ncnc21` [Compound 181, (E)-N-(3-(6-amino-8-oxo-7-(4-phenoxyphenyl)-7H-purin-9(8H)-yl)-4-methoxyphenyl)-4-(cyclopropyl(methyl)amino)-N-methylbut-2-enamide]: the IC50 against BTK lay in the range of 100 to 1000 nM. Same read-out and setting: as for `COc1cc(NC(=O)/C=C/CN(C)C2CC2)cc(-n2c(=O)n(-c3ccc(Oc4ccccc4)cc3)c3c(N)ncnc32)c1` [Compound 263, (E)-N-(3-(6-amino-8-oxo-7-(4-phenoxyphenyl)-7H-purin-9(8H)-yl)-5-methoxyphenyl)-4-(cyclopropyl(methyl)amino)but-2-enamide], the figure is less than 100 nM; as for `CN(C(=O)/C=C/CN(C)C1CC1)c1cccc(-n2c(=O)n(-c3ccc(Oc4ccc(O)cc4)cc3)c3c(N)ncnc32)c1` [Compound 269, (E)-N-(3-(6-amino-7-(4-(4-hydroxyphenoxy)phenyl)-8-oxo-7H-purin-9(8H)-yl)phenyl)-4-(cyclopropyl(methyl)amino)-N-methylbut-2-enamide], less than 100 nM. At BTK, `CN(C(=O)/C=C/CN(C)C1CC1)c1cccc(-n2c(=O)n(-c3ccc(NC(=O)c4ccccc4)cc3)c3c(N)ncnc32)c1` [Compound 274, (E)-N-(4-(6-amino-9-(3-(4-(cyclopropyl(methyl)amino)-N-methylbut-2-enamido)phenyl)-8-oxo-8,9-dihydro-7H-purin-7-yl)phenyl)benzamide] yielded an IC50 of less than 100 nM.

In turn, `CN(C(=O)/C=C/CN(C)C1CC1)c1cccc(-n2c(=O)n(-c3ccc(C(=O)Nc4ccccc4)cc3)c3c(N)ncnc32)c1` [Compound 280, (E)-4-(6-amino-9-(3-(4-(cyclopropyl(methyl)amino)-N-methylbut-2-enamido)phenyl)-8-oxo-8,9-dihydro-7H-purin-7-yl)-N-phenylbenzamide] showed an IC50 at BTK of 100 to 1000 nM. In turn, `CN(C(=O)/C=C/CN)c1cccc(-n2c(=O)n(-c3ccc(Oc4ccccc4)cc3)c3c(N)ncnc32)c1` [Compound 326, (E)-4-amino-N-(3-(6-amino-8-oxo-7-(4-phenoxyphenyl)-7H-purin-9(8H)-yl)phenyl)-N-methylbut-2-enamide] gave an IC50 at BTK of 100 to 1000 nM.
